US20260027108A1, “PHARMACEUTICAL COMPOSITION OF HETEROARYL DERIVATIVE AND MEDICAL USE THEREOF” (Haisco Pharmaceutical Group Co., Ltd., priority 2022, published 2026)
Read-outs that look alike come from different tables or passages of the source. One block for each compound: values may come before it.

How the values were obtained:
PARP1 enzyme = PARP1 enzyme (Homo sapiens (Human), UniProt P09874); assay: PARP1 enzyme activity test (chemiluminescence kit, BPS Bioscience); format: biochemical; conditions: read-out: PARP-1 enzyme activity IC50
Sequence of PARP1 enzyme (P09874 whole entry): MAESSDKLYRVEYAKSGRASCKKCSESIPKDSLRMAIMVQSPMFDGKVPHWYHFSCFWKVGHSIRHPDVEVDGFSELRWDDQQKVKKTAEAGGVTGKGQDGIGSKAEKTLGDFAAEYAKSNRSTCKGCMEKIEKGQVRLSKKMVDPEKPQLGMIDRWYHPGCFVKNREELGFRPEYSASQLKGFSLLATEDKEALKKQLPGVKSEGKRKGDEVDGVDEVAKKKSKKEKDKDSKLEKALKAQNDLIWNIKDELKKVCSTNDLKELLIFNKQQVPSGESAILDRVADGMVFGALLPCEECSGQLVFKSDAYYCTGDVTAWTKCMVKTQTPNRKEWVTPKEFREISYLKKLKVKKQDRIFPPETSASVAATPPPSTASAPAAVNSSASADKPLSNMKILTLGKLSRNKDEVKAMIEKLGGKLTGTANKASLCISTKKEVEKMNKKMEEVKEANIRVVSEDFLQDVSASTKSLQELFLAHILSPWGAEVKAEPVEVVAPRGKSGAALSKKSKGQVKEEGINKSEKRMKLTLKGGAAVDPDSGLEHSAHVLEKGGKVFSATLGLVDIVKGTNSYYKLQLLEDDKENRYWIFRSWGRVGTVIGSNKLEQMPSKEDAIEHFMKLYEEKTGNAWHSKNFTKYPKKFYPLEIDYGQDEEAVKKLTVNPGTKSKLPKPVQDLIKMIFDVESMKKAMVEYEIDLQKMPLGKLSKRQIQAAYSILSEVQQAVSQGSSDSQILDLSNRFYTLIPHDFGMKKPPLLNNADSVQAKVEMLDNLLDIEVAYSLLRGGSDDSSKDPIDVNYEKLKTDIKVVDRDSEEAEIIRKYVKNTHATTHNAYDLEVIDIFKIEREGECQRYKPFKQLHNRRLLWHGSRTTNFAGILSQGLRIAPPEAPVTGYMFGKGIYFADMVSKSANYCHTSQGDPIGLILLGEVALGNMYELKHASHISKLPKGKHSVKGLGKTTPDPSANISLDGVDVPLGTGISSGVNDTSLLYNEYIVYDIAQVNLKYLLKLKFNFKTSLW
Protocol: PARP1 chemical fluorescence detection kit was purchased from BPS Bioscience. The histone solution in the kit was diluted 5× with 1×PBS, and 25 μL of the diluted histone solution was added to a microwell plate and incubated overnight at 4° C. After the incubation, the plate was washed three times with PBST (0.05% Tween-20). 100 μL of the blocking solution was added to the microwell plate and incubated at 25° C. for 90 minutes. After the incubation was completed, the plate was washed three times with PBST. 2.5 μL of compounds at different concentrations diluted in test buffer and 12.5 μL of substrate mixed solution (1.25 μL 10×PARP test buffer; 1.25 μL 10×PARP test mixed solution; 2.5 μL Activated DNA, 7.5 μL double-distilled water) were added to the microwell plate. The PARP1 enzyme was diluted to 2 ng/μL, 10 μL of the diluent was added to the microwell plate, and the reaction system was incubated at 25° C. for 60 minutes.
After the incubation was completed, the plate was washed three times with PBST. Streptavidin-HRP was diluted 50× with a blocking solution, and 25 μL of the diluent was added to the microwell plate and incubated at 25° C. for 30 minutes. After the incubation, the plate was washed three times with PBST. ELISA ECL substrate A and substrate B were mixed at a ratio of 1:1 (v/v), 50 μL of the mixture was added to the microwell plate, and the chemiluminescence value was read.
Curve fitting was performed by four parameters (log(inhibitor) vs. response—Variable slope) using GraphPad Prism software, and the IC50 value was calculated.

MDA-MB-436 cells = assay: MDA-MB-436 cell activity test (CellTiter-Glo, 7 days); format: cell-based, Human; conditions: for IC50: 7 days incubation, read-out: MDA-MB-436 cell inhibitory activity IC50
Protocol: On day 1, the cells in the exponential growth phase were collected, and the cell suspension was adjusted to 4000 cells/135 μL with the culture medium. 135 μL of the cell suspension was added to each well of a 96-well cell culture plate and incubated overnight. On day 2, compounds at different concentrations were added, and the plate was placed in the incubator and incubated for 7 days. After the incubation was completed, according to operation instructions for a CellTiter-Glo kit (Promega, G7573), 75 μL of CTG solution, which was already pre-melted and equilibrated to room temperature, was added to each well, and the mixture was uniformly mixed for 2 min using a microplate shaker. The plate was placed at room temperature for 10 min, and then […] were measured using an Envision2104 plate reader (PerkinElmer). […] The IC50 value was calculated using GraphPad Prism software.

[1] = system: MDA-MB-436 subcutaneous transplanted tumor; assay: Mouse MDA-MB-436 subcutaneous in vivo transplanted tumor model; conditions: Day 0-Day 10: 1 mg/kg, Day 11-Day 28: 0.1 mg/kg, once a day
Protocol: Human breast cancer MDA-MB-436 cells were placed in Leibovitz's L-15 medium (supplemented with 10 μg/mL insulin, 16 μg/mL glutathione, 10% fetal bovine serum and 1% penicillin-streptomycin solution) and cultured at 37° C. Conventional digestion treatment with trypsin was performed twice a week for passage. When the cell saturation was 80%-90%, and the number reached the requirement, the cells were harvested, counted, and inoculated. BALB/c nude mice (from Beijing Vital River Laboratory Animal Technology Co., Ltd.) were subcutaneously inoculated with 0.2 mL (10×10^6) of MDA-MB-436 cells (plus matrigel, with the volume ratio of 1:1) on the right back. When the average tumor volume reached about 180 mms, grouping and administration were performed (marked as Day 0). […] The administration frequency was once a day, the administration cycle was 29 days, and the drug withdrawal observation period was set to 14 days. After grouping, the tumor diameter was measured twice a week with a vernier caliper. The formula for calculating the tumor volume was: V=0.5×a×b^2, where a and b represented the long and short diameters of the tumor, respectively.

Structure (SMILES): CCc1cc2ncc(CN3CCN(c4ccc(NC(=O)[C@H]5C[C@H]5F)nc4)CC3)cc2[nH]c1=O [Compound 34]
IC50 (PARP1 enzyme): 0.66 nM

Structure (SMILES): CCc1cc2ncc(CN3CCN(c4ccc(C(=O)NC5CC5)nc4)CC3)cc2[nH]c1=O [Compound 4]
body weight of the animals [1]: no significant decrease

Structure (SMILES): CCC1=CC2N=CC(CN3CCN(c4ccc(C(=O)C[C@@H]5C[C@@H]5F)nc4)CC3)=CC2CC1=O (stereo partly drawn) [Compound 11]
IC50 (PARP1 enzyme): 0.54 nM
Max inh. % 10 μM (MDA-MB-436 cells; 10 μM, MDA-MB-436 cells): 85.2%
IC50 (MDA-MB-436 cells): 6 nM

Further lines, with some results ahead:

IC50 (PARP1 enzyme): 0.97 nM
Structure (SMILES): CCc1cc2ncc(CN3CCN(c4ccc(NC(=O)[C@@H]5C[C@H]5F)nc4)CC3)cc2[nH]c1=O [Compound 35]

IC50 (MDA-MB-436 cells; Homo sapiens, MDA-MB-436, 168 h): 2.3 nM
Structure (SMILES): CCc1cc2ncc(CN3CCN(c4ccc(C(=O)NC5C[C@H]5F)nc4)CC3)cc2[nH]c1=O (stereo partly drawn) [Compound 41]
inhibition at 10 µM (MDA-MB-436 cells; Homo sapiens, 10 μM, MDA-MB-436 cells, read-out: Max inh. % 10 μM): 92.1%

IC50 (PARP1 enzyme): 0.56 nM
Structure (SMILES): COc1cc2ncc(CN3CCN(c4ccc(C(=O)NC5CN(c6ccccc6)C5)nc4)CC3)cc2[nH]c1=O [Compound 46]
